Each structure is given as a SMILES string. Some results are limits rather than exact numbers.

The target in this assay is T1, PD-1/PD-L1 (Homo sapiens, UniProt Q9NZQ7).
T1 construct: purchased Cisbio 63ADK000CPDEC
T1 sequence (Q9NZQ7 19-238 limits assumed): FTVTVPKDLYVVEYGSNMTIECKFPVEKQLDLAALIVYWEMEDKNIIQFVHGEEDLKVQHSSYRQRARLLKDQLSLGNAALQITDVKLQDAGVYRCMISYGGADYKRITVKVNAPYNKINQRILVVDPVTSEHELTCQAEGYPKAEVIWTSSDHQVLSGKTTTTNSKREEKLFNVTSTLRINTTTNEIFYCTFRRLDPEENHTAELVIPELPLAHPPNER
In words: PD-1/PD-L1 homogeneous time-resolved fluorescence (HTRF) binding assay. As to conditions: 665 nm/620 nm ratio. The text has this: Test Example 1: Detect the Inhibitory Effect of the Compound to the Binding of PD-1/PD-L1 Protein
The PD-1/PD-L1 homogeneous time-resolved fluorescence method is used to detect the binding ability of the compound with PD-L1.
PD-1/PD-L1 binding assay kit (Cisbio, Cat #63ADK000CPDEC) was chosen, which contains two proteins Tag 1-PD-L1 and Tag 2-PD-1, and two antibodies Anti-Tag1-Eu^3+ and Anti-Tag2-XL 665. The principle of detection was: Anti-tag1-Eu^3+ was used as the donor of HTRF, and Anti-Tag2-XL 665 was used as the acceptor of HTRF. When Tag 1-PD-L1 interacts with Tag 2-PD-1, the added HTRF donor and the acceptor are close to each other. After the donor has received the excitation energy, part of the energy was transferred to the acceptor, thus generating 665 nm emission light. […] The inhibitory effect of the compound can be determined by comparing the ratio of 665 nm/620 nm. Tag 1-PD-L1 was diluted with Diluent buffer (cat #62DLBDDF) to a working concentration of 10 nM, Tag 2-PD-1 was diluted with Diluent buffer to a working concentration of 500 nM, Anti-Tag1-Eu^3+ was diluted with detection buffer (cat #62DB1FDG) at a ratio of 1:100, Anti-Tag2-XL 665 was diluted with detection buffer at a ratio of 1:20, and the compound to be detected was diluted with diluent buffer to a final concentration of 2×. Compound solution (2 μL) was added to each well of a 384-well plate, then Tag 1-PD-L1 (4 μL) and Tag 2-PD-1 (4 μL) were added successively. The mixture was incubated at room temperature for 15 minutes. Then Anti-Tag1-Eu^3+ (5 μL) and Anti-Tag2-XL 665 (5 μL) were added, and the mixture was incubated overnight at room temperature. BioTek Synergy™ Neo2 multifunctional microplate reader was used to detect so as to provide the 665 nm/620 nm ratio. PrismGraphd 5.02 was used to fit the IC50 curve.
On to `COc1nc(-c2cccc(-c3cccc(Nc4nccc5sc(CN6CCC(C)(C(=O)O)CC6)nc45)c3Cl)c2Cl)cc(C)c1CNC[C@@H]1CCC(=O)N1` [Compound 49], for which the concentration for half-maximal inhibition (IC50) (as a rule, the point on the concentration scale where inhibition reaches its midpoint) was < 100 nM. Take `Cc1c(Nc2csc3cc(CNCCO)cnc23)cccc1-c1ccccc1` [Compound 1, 2-(((3-((2-Methyl-[1,1′-biphenyl]-3-yl)amino)thieno[3,2-b]pyridin-6-yl)methyl)amino)ethane-1-ol]: the IC50 is < 100 nM.

As to `COc1nc(-c2cccc(-c3cccc(Nc4nccc5sc(CN6CC[C@H](C(=O)O)C6)nc45)c3Cl)c2Cl)cc(C)c1CNC[C@@H]1CCC(=O)N1` [Compound 44], the IC50 was < 100 nM.

Consider `COc1nc(-c2cccc(-c3cccc(Nc4nccc5sc(CN6CC(C(=O)O)C6)nc45)c3Cl)c2Cl)ccc1CN1CC2(CCC(=O)N2)C1` [Compound 32], for which the IC50 was < 100 nM. As for `COc1nc(-c2cccc(-c3cccc(Nc4nccc5sc(CN6CCC[C@H](C(=O)O)C6)nc45)c3Cl)c2Cl)ccc1CN1CC2(CCC(=O)N2)C1` [Compound 33], the figure is < 100 nM. As for `OCCNCc1nc2c(Nc3cccc(-c4ccccc4)c3Cl)nccc2s1` [Compound 5, 2-(((4-((2-Chloro-[1,1′-biphenyl]-3-yl)amino)thiazolo[4,5-c]pyridin-2-yl)methyl)amino)ethane-1-ol], the figure is < 100 nM; as for `COc1nc(-c2cccc(-c3cccc(Nc4nccc5sc(CN[C@H]6CC[C@H](C(=O)O)CC6)nc45)c3Cl)c2Cl)cc(C)c1CNC[C@@H]1CCC(=O)N1` [Compound 50], < 100 nM; as for `COc1nc(-c2cccc(-c3cccc(Nc4nccc5sc(CN6CCC[C@@H]6C(=O)O)nc45)c3Cl)c2Cl)ccc1CNC[C@@H]1CCC(=O)N1` [Compound 41], < 100 nM. As for `OCCNCc1nc2c(Nc3cccc(-c4ccc5c(c4)OCCO5)c3Cl)nccc2s1` [Compound 10, 2-(((4-((2-chloro-3-(2,3-dihydrobenzo[b][1,4]dioxin-6-yl)phenyl)amino)thiazolo[4,5-c)pyridin-2-yl)methyl)amino)ethane-1-ol], the figure is < 100 nM. Consider `COc1nc(-c2cccc(-c3cccc(Nc4nccc5sc(CN6CC[C@@H](C(=O)O)C6)nc45)c3Cl)c2Cl)cc(C)c1CNC[C@@H]1CCC(=O)N1` [Compound 45], for which the IC50 was < 100 nM. As for `COc1nc(-c2cccc(-c3cccc(Nc4nccc5sc(CN6CC(NC(C)=O)C6)nc45)c3Cl)c2Cl)ccc1CN1CC2(CCC(=O)N2)C1` [Compound 29], the figure is < 100 nM; as for `COc1nc(-c2cccc(-c3cccc(Nc4nccc5sc(CNCC(=O)OCc6oc(=O)oc6C)nc45)c3Cl)c2Cl)ccc1CNC[C@@H]1CCC(=O)N1` [Compound 19, (5-methyl-2-carbonyl-1,3-dioxazole-4-yl) methyl (S)-((4-((2,2′-dichloro-3′-(6-methoxy-5-((5-carbonylpyrrolidin-2-yl)methyl)pyridine-2-yl)-[1,1′-biphenyl]-3-yl)amino)thiazolo [4,5-c]pyridine-2-yl)methyl) glycine], < 100 nM; as for `COc1nc(-c2cccc(-c3cccc(Nc4nccc5sc(CNCC(=O)O)nc45)c3Cl)c2Cl)ccc1CN1CC2(CCC(=O)N2)C1` [Compound 22], < 100 nM.

As for `COc1nc(-c2cccc(-c3cccc(Nc4nccc5sc(CN6CCC(CC(=O)O)C6)nc45)c3Cl)c2Cl)cc(C)c1CNC[C@@H]1CCC(=O)N1` (some centres unmarked) [Compound 52], the IC50 was < 100 nM. As for `COc1nc(-c2cccc(-c3cccc(Nc4nccc5sc(CNCC(=O)O)nc45)c3Cl)c2Cl)cnc1CNC[C@@H]1CCC(=O)N1` [Compound 26], the figure is 100 to 1000 nM; as for `COc1nc(-c2cccc(-c3cccc(Nc4nccc5sc(CNCC#N)nc45)c3Cl)c2Cl)ccc1CNC[C@@H]1CCC(=O)N1` [Compound 24], < 100 nM. As for `COc1nc(-c2cccc(-c3cccc(Nc4nccc5sc(CNCC(=O)O)nc45)c3Cl)c2Cl)cc(C)c1CN1CC2(CCC(=O)N2)C1` [Compound 30], the figure is < 100 nM; as for `Cc1c(Nc2csc3cc(CN4C[C@@H](O)C[C@H]4C(=O)O)cnc23)cccc1-c1ccccc1` [Compound 2, (2S,4S)-4-hydroxy-1-((3-((2-methyl-[1,1′-biphenyl]-3-yl)amino)thieno[3,2-b]pyridine-6-yl)methyl)pyrrolidine-2-carboxylic acid], < 100 nM; as for `COc1nc(-c2cccc(-c3cccc(Nc4nccc5sc(CN[C@H]6CC[C@@H](C(=O)O)CC6)nc45)c3Cl)c2Cl)cc(C)c1CNC[C@@H]1CCC(=O)N1` [Compound 51], < 100 nM. Regarding `OCCNCc1nc2ccnc(Nc3cccc(-c4ccccc4)c3Cl)c2s1` [Compound 17, 2-(((4-((2-chloro-[1,1′-biphenyl]-3-yl)amino)thiazolo[5,4-c]pyridin-2-yl)methyl)amino)ethane-1-ol], the half-inhibitory concentration (IC50) fell in the range of 100 to 1000 nM. Take `COc1cc(-c2cccc(-c3cccc(Nc4nccc5sc(CN6CCC(C(=O)O)CC6)nc45)c3Cl)c2Cl)nc(C)c1CNC[C@@H]1CCC(=O)N1` [Compound 43]: the concentration for half-maximal inhibition (IC50) was < 100 nM. Take `O=C(O)CNCc1nc2c(Nc3cccc(-c4cccc(OCCCN5CCC(O)C5)c4)c3Cl)nccc2s1` (centres unmarked) [Compound 15, ((4-((2-chloro-3′-(3-(3-hydroxypyrrolidine-1-yl)propoxy)-[1,1′-biphenyl]-3-yl)amino)thiazolo[4,5-c]pyridine-2-yl)methyl)glycine]: the concentration for half-maximal inhibition (IC50) was < 100 nM. As for `COc1nc(-c2cccc(-c3cccc(Nc4nccc5sc(CNCC(=O)O)nc45)c3Cl)c2Cl)c(Cl)cc1CNC[C@@H]1CCC(=O)N1` [Compound 28], the figure is < 100 nM. As for `COc1nc(-c2cccc(-c3cccc(Nc4nccc5sc(CN6CCC[C@@H]6C(=O)O)nc45)c3Cl)c2Cl)cc(C)c1CNC[C@@H]1CCC(=O)N1` [Compound 47], the figure is < 100 nM; as for `COc1nc(-c2cccc(-c3cccc(Nc4nccc5sc(CN6C[C@@H](O)CC6=O)nc45)c3Cl)c2Cl)ccc1CN1CC2(CCC(=O)N2)C1` [Compound 31], < 100 nM; as for `O=C(O)CNCc1nc2c(Nc3cccc(-c4ccccc4)c3Cl)nccc2s1` [Compound 8, ((4-((2-Chloro-[1,1′-biphenyl]-3-yl)amino)thiazolo[4,5-c]pyridin-2-yl)methyl)glycine], < 100 nM. Consider `O[C@@H]1CCN(Cc2nc3c(Nc4cccc(-c5ccccc5)c4Cl)nccc3s2)C1` [Compound 6, (R)-1-((4-((2-Chloro-[1,1′-biphenyl]-3-yl)amino)thiazolo[4,5-c]pyridin-2-yl)methyl)pyrrolidin-3-ol], for which the 50% inhibitory concentration (IC50) is 100 to 1000 nM. Take `O=C(O)[C@@H]1C[C@H](O)CN1Cc1nc2c(Nc3cccc(-c4ccccc4)c3Cl)nccc2s1` [Compound 4]: the IC50 was < 100 nM. As for `COc1nc(-c2cccc(-c3cccc(Nc4nccc5sc(CN6CCCC[C@@H]6C(=O)O)nc45)c3Cl)c2Cl)ccc1CNC[C@@H]1CCC(=O)N1` [Compound 42], the figure is < 100 nM; as for `COc1nc(-c2cccc(-c3cccc(Nc4nccc5sc(CNCc6nn[nH]n6)nc45)c3Cl)c2Cl)ccc1CN1CC2(CCC(=O)N2)C1` [Compound 39], < 100 nM. As for `COc1nc(-c2cccc(-c3cccc(Nc4nccc5sc(CN6CCC(C(=O)O)CC6)nc45)c3Cl)c2Cl)ccc1CNC[C@@H]1CCC(=O)N1` [Compound 40], the figure is < 100 nM; as for `COc1nc(-c2cccc(-c3cccc(Nc4nccc5sc(CN6CCC7(CNC(=O)C7)C6)nc45)c3Cl)c2Cl)cc(C)c1CNC[C@@H]1CCC(=O)N1` (some centres unmarked) [Compound 46], < 100 nM.

For the compound `Cc1c(-c2ccc(CNC[C@@H]3CCC(=O)N3)c(O)n2)cccc1-c1cccc(Nc2nccc3sc(CNCC(=O)O)nc23)c1Cl` [Compound 21], the IC50 is < 100 nM. Consider `CN(CCCO)CCCOc1cccc(-c2cccc(Nc3nccc4sc(CNCC(=O)O)nc34)c2Cl)c1` [Compound 14, ((4-((2-chloro-3′-(3-((3-hydroxypropyl)(methyl)amino)propoxy)-[1,1′-biphenyl]-3-yl)amino)thiazolo[4,5-c]pyridin-2-yl)methyl)glycine], for which the IC50 is < 100 nM. Turning to `COc1nc(-c2cccc(-c3cccc(Nc4nccc5sc(CNCC(=O)O)nc45)c3Cl)c2C)ccc1CNC[C@@H]1CCC(=O)N1` [Compound 20], the half-maximal inhibitory concentration (IC50) was < 100 nM. As for `COc1cc(-c2cccc(-c3cccc(Nc4nccc5sc(CN6CCC(C(=O)O)CC6)nc45)c3Cl)c2Cl)cc(C)c1CNC[C@@H]1CCC(=O)N1` [Compound 55], the concentration for half-maximal inhibition (IC50) is < 100 nM. As for `COc1nc(-c2cccc(-c3cccc(Nc4nccc5sc(CN6CCC(C#N)CC6)nc45)c3Cl)c2Cl)cc(C)c1CNC[C@@H]1CCC(=O)N1` [Compound 56], the figure is < 100 nM; as for `NC(=O)CNCc1nc2c(Nc3cccc(-c4ccccc4)c3Cl)nccc2s1` [Compound 3, 2-(((4-((2-chloro-[1,1′-biphenyl]-3-yl)amino)thiazolo[4,5-c]pyridin-2-yl)methyl)amino) acetamide], < 100 nM.

For the origin of these results see patent publication US20210347785A1, “PREPARATION AND APPLICATION OF AROMATIC COMPOUND HAVING IMMUNOREGULATORY FUNCTION” (SHANGHAI ENNOVABIO PHARMACEUTICALS CO., LTD., priority 2018, published 2021).
